Laboratory results published in patent US11339171B2, “MDM2 inhibitors” (Gan & Lee Pharmaceuticals, priority 2017, dated 2022).

The compounds below were run against T1, MDM2 (Homo sapiens, UniProt Q00987) (assay: Inhibition test of MDM2-P53 (GST-MDM2, Biotin-P53, Anti-GST-Tb, SA-XL665)). Settings: labels are Example numbers; the compounds with S-configuration are meant.
T1 construct: made in house
T1 sequence (Q00987 whole entry): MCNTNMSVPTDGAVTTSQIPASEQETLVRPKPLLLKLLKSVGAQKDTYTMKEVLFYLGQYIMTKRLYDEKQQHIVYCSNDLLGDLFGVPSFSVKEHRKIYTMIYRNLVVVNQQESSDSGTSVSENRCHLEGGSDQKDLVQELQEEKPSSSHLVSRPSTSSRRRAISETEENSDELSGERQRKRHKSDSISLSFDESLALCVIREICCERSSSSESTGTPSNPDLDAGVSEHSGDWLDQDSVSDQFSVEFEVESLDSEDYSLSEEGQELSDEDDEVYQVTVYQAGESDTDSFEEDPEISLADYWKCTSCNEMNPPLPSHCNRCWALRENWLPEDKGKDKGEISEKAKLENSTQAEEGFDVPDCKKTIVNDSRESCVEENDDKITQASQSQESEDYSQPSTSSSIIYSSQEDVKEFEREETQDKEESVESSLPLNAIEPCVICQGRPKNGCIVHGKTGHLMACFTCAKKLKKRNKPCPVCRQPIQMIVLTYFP
Format: binding
Procedure: Experimental purpose: To determine the inhibitory activities of the compounds of the present invention on MDM2.
The present experiment uses the following assay methods/instruments/reagents:
Buffer: 1×PBS+0.1% BSA+5 mM DTT; MDM2 Buffer: Buffer+1 mM AEBSF
GST-MDM2: The final concentration is 4 nM, and it is required to formulate a 20 nM (5×) solution. A mother liquor is diluted by 3500 folds, wherein the mother liquor is 10-fold diluted first, and then 350-fold diluted.
Anti-GST-Tb: The final concentration is 2×, and a mother liquor is diluted by 50 folds.
MIX: GST-MDM2, Biotin-P53, SA-XL665 and Anti-GST-Tb were mixed according to a ratio of 4:4:5:5.
Sample: Preparation of a sample (10 mM in DMSO) solution: a. 3 μL sample+7 μL DMSO+20 μL DMSO were formulated to give an initial concentration of 1 mM and mixed well; b. in plate 1, twelve 5-fold serial dilutions (sequentially prepared by adding 10 μL of the last sample to 40 μL DMSO) were prepared and mixed well, individually; c. plate 2 was taken, 45 μL of Buffer was added to each well, and 5 μL of dilution at each concentration was taken from plate 1 and added to the corresponding well in plate 2 (the concentration in well 1 was 100 μM), and mixed well.
1. 18 μL of MIX was added to a 384-well plate, and centrifugation was performed at 4500 rpm for 5 min.
2. 2 μL of sample was added correspondingly to each well, the resultant was centrifuged at 25° C. and 4500 rpm for 5 min, and shaked at 25° C. for 90 min on a shaker.
Readings were obtained from the Microplate reader, and data was processed by Graphpad Prism 6.0.
With `COc1ccccc1-c1nc2c(n1C(C)C)C1(C(=O)Nc3cc(Cl)ccc31)N(c1cc(Cl)c(=O)n(C)c1)C2=O` (stereo not drawn) [Example 53, 6-chloro-5′-(5-chloro-1-methyl-6-oxo-1,6-dihydropyridin-3-yl)-3′-isopropyl-2′-(2-methoxyphenyl)-3′H-spiro[dihydroindole-3,4′-pyrrolo[3,4-d]imidazole]-2,6′(5′H)-dione] the “inhibitory effect on MDM2 compared with positive control compound HDM201” value was “better”. For `COc1ccc(C)cc1-c1nc2c(n1C(C)C)C1(C(=O)Nc3cc(Cl)ccc31)N(c1cc(Cl)ccc1C)C2=O` (stereo not drawn) [Example 62, 6-chloro-5′-(5-chloro-2-methylphenyl)-3′-isopropyl-2′-(2-methoxy-5-methylphenyl)-3′H-spiro[dihydroindole-3,4′-pyrrolo[3,4-d]imidazole]-2,6′(5′H)-dione], the “inhibitory effect on MDM2 compared with positive control compound HDM201” value was “better”. `COc1ccc(N2C(=O)c3nc(-c4ccccc4OC)n(C(C)C)c3C23C(=O)Nc2cc(Cl)ccc23)cc1Cl` (stereo not drawn) [Example 63, 6-chloro-5′-(3-chloro-4-methoxyphenyl)-3′-isopropyl-2′-(2-methoxyphenyl)-3′H-spiro[dihydroindole-3,4′-pyrrolo[3,4-d]imidazole]-2,6′(5′H)-dione] was tested, and the “inhibitory effect on MDM2 compared with positive control compound HDM201” value was “better”. For `COc1cc(N)ccc1-c1nc2c(n1C(C)C)C1(C(=O)Nc3cc(Cl)ccc31)N(c1cc(Cl)ccc1F)C2=O` (stereo not drawn) [Example 66, 2′-(4-amino-2-methoxyphenyl)-6-chloro-5′-(5-chloro-2-fluorophenyl)-3′-isopropyl-3′H-spiro[dihydroindole-3,4′-pyrrolo[3,4-d]imidazole]-2,6′(5′H)-dione], the “inhibitory effect on MDM2 compared with positive control compound HDM201” value was “better”. In the case of `COc1cc(N)ccc1-c1nc2c(n1C(C)C)C1(C(=O)Nc3cc(Cl)ccc31)N(c1cc(F)cc(Cl)c1)C2=O` (stereo not drawn) [Example 67, 2′-(4-amino-2-methoxyphenyl)-6-chloro-5′-(3-chloro-5-fluorophenyl)-3′-isopropyl-3′H-spiro[dihydroindole-3,4′-pyrrolo[3,4-d]imidazole]-2,6′(5′H)-dione], the “inhibitory effect on MDM2 compared with positive control compound HDM201” value is reported as “better”. For `COc1ccc(CC(=O)N(C)C)cc1-c1nc2c(n1C(C)C)C1(C(=O)Nc3cc(Cl)ccc31)N(c1cc(Cl)ccc1C)C2=O` (stereo not drawn) [Example 70, 2-(3-(6-chloro-5′-(5-chloro-2-methylphenyl)-3′-isopropyl-2,6′-dioxo-5′,6′-dihydro-3′H-spiro[dihydroindole-3,4′-pyrrolo[3,4-d]imidazole]-2′-yl)-4-methoxyphenyl)-N,N-dimethylacetamide], the “inhibitory effect on MDM2 compared with positive control compound HDM201” value was “better”. With `COc1cc(N)ccc1-c1nc2c(n1C(C)C)C1(C(=O)Nc3cc(Cl)ccc31)N(c1ccc(F)c(Cl)c1)C2=O` (stereo not drawn) [Example 73, 2′-(4-amino-2-methoxyphenyl)-6-chloro-5′-(3-chloro-4-fluorophenyl)-3′-isopropyl-3′H-spiro[dihydroindole-3,4′-pyrrolo[3,4-d]imidazole]-2,6′(5′H)-dione] the “inhibitory effect on MDM2 compared with positive control compound HDM201” value was “better”. For `COc1cc(C(N)=O)ccc1-c1nc2c(n1C(C)C)C1(C(=O)Nc3cc(Cl)ccc31)N(c1cc(Cl)ccc1C)C2=O` (stereo not drawn) [Example 77, 4-(6-chloro-5′-(5-chloro-2-methylphenyl)-3′-isopropyl-2,6′-dioxo-5′,6′-dihydro-3′H-spiro[dihydroindole-3,4′-pyrrolo[3,4-d]imidazole]-2′-yl)-3-methoxybenzamide], the “inhibitory effect on MDM2 compared with positive control compound HDM201” value was “better”. In the case of `COc1cccc(OC)c1-c1nc2c(n1C(C)C)C1(C(=O)Nc3cc(Cl)ccc31)N(c1cc(Cl)ccc1C)C2=O` (stereo not drawn) [Example 79, 6-chloro-5′-(5-chloro-2-methylphenyl)-2′-(2,6-dimethoxyphenyl)-3′-isopropyl-3′H-spiro[dihydroindole-3,4′-pyrrolo[3,4-d]imidazole]-2,6′(5′H)-dione], the “inhibitory effect on MDM2 compared with positive control compound HDM201” value is reported as “better”. `COc1cc(N(C)C)ccc1-c1nc2c(n1C(C)C)C1(C(=O)Nc3cc(Cl)ccc31)N(c1cc(Cl)ccc1F)C2=O` (stereo not drawn) [Example 81, 6-chloro-5′-(5-chloro-2-fluorophenyl)-2′-(4-(dimethylamino)-2-methoxyphenyl)-3′-isopropyl-3′H-spiro[dihydroindole-3,4′-pyrrolo[3,4-d]imidazole]-2,6′(5′H)-dione] was tested, and the “inhibitory effect on MDM2 compared with positive control compound HDM201” value was “better”. In the case of `COc1nc(N)ncc1-c1nc2c(n1C(C)C)C1(C(=O)Nc3cc(Cl)ccc31)N(c1cc(Cl)ccc1C)C2=O` (stereo not drawn) [Example 90, 2′-(2-amino-4-methoxypyrimidin-5-yl)-6-chloro-5′-(5-chloro-2-methylphenyl)-3′-isopropyl-3′H-spiro[dihydroindole-3,4′-pyrrolo[3,4-d]imidazole]-2,6′(5′H)-dione], the “inhibitory effect on MDM2 compared with positive control compound HDM201” value is reported as “better”. For `COc1cc(OC(C)C)ncc1-c1nc2c(n1C(C)C)C1(C(=O)Nc3cc(Cl)ccc31)N(c1cccc(Cl)c1)C2=O` (stereo not drawn) [Example 95, 6-chloro-5′-(3-chlorophenyl)-2′-(6-isopropoxy-4-methoxypyridin-3-yl)-3′-isopropyl-3′H-spiro[dihydroindole-3,4′-pyrrolo[3,4-d]imidazole]-2,6′(5′H)-dione], the “inhibitory effect on MDM2 compared with positive control compound HDM201” value was “better”. `COc1cc(N(C)C)ncc1-c1nc2c(n1C(C)C)C1(C(=O)Nc3cc(Cl)ccc31)N(c1cc(Cl)ccc1C)C2=O` (stereo not drawn) [Example 111, 6-chloro-5′-(5-chloro-2-methylphenyl)-2′-(6-(dimethylamino)-4-methoxypyridin-3-yl)-3′-isopropyl-3′H-spiro[dihydroindole-3,4′-pyrrolo[3,4-d]imidazole]-2,6′(5′H)-dione] was tested, and the “inhibitory effect on MDM2 compared with positive control compound HDM201” value was “better”. For `COc1nc(N(C)C)ncc1-c1nc2c(n1C(C)C)C1(C(=O)Nc3cc(Cl)ccc31)N(c1cccc(Cl)c1)C2=O` (stereo not drawn) [Example 112, 6-chloro-5′-(3-chlorophenyl)-2′-(2-(dimethylamino)-4-methoxypyrimidin-5-yl)-3′-isopropyl-3′ H-spiro[dihydroindole-3,4′-pyrrolo[3,4-d]imidazole]-2,6′ (5′ H)-dione], the “inhibitory effect on MDM2 compared with positive control compound HDM201” value was “better”. In the case of `COc1cc(C#N)ccc1-c1nc2c(n1C(C)C)C1(C(=O)Nc3cc(Cl)ccc31)N(c1cccc(Cl)c1)C2=O` (stereo not drawn) [Example 128], the “inhibitory effect on MDM2 compared with positive control compound HDM201” value is reported as “better”. In the case of `COc1cc(OC)c(-c2nc3c(n2C(C)C)C2(C(=O)Nc4cc(Cl)ccc42)N(c2cc(Cl)ccc2F)C3=O)cn1` (stereo not drawn) [Example 133, 6-chloro-5′-(5-chloro-2-fluorophenyl)-2′-(4,6-dimethoxypyridin-3-yl)-3′-isopropyl-3′H-spiro[dihydroindole-3,4′-pyrrolo[3,4-d]imidazole]-2,6′(5′H)-dione], the “inhibitory effect on MDM2 compared with positive control compound HDM201” value is reported as “better”. With `COc1nc(N(C)C)ncc1-c1nc2c(n1C(C)C)C1(C(=O)Nc3cc(Cl)ccc31)N(c1cc(Cl)cnc1C)C2=O` (stereo not drawn) [Example 135, 6-chloro-5′-(5-chloro-2-methylpyridin-3-yl)-2′-(2-(dimethylamino)-4-methoxypyrimidin-5-yl)-3′-isopropyl-3′H-spiro[dihydroindole-3,4′-pyrrolo[3,4-d]imidazole]-2,6′(5′H)-dione] the “inhibitory effect on MDM2 compared with positive control compound HDM201” value was “better”. `COc1nc(OCCF)ncc1-c1nc2c(n1C(C)C)C1(C(=O)Nc3cc(Cl)ccc31)N(c1cc(Cl)ccc1C)C2=O` (stereo not drawn) [Example 140, 6-chloro-5′-(5-chloro-2-methylphenyl)-2′-(2-(2-fluoroethoxy)-4-methoxypyrimidin-5-yl)-3′-isopropyl-3′H-spiro[dihydroindole-3,4′-pyrrolo[3,4-d]imidazole]-2,6′(5′H)-dione] was tested, and the “inhibitory effect on MDM2 compared with positive control compound HDM201” value was “better”. For `COc1cc(C(F)(F)F)ncc1-c1nc2c(n1C(C)C)C1(C(=O)Nc3cc(Cl)ccc31)N(c1cccc(Cl)c1)C2=O` (stereo not drawn) [Example 142, 6-chloro-5′-(3-chlorophenyl)-3′-isopropyl-2′-(4-methoxy-6-(trifluoromethyl)pyridin-3-yl)-3′H-spiro[dihydroindole-3,4′-pyrrolo[3,4-d]imidazole]-2,6′(5′H)-dione], the “inhibitory effect on MDM2 compared with positive control compound HDM201” value was “better”. For `COc1cc(OCCO)ccc1-c1nc2c(n1C(C)C)C1(C(=O)Nc3cc(Cl)ccc31)N(c1cc(Cl)ccc1C)C2=O` (stereo not drawn) [Example 148, 6-chloro-5′-(5-chloro-2-methylphenyl)-2′-(4-(2-hydroxyethoxy)-2-methoxyphenyl)-3′-isopropyl-3′H-spiro[dihydroindole-3,4′-pyrrolo[3,4-d]imidazole]-2,6′(5′H)-dione], the “inhibitory effect on MDM2 compared with positive control compound HDM201” value was “better”. In the case of `COc1cc(OC(F)F)ncc1-c1nc2c(n1C(C)C)C1(C(=O)Nc3cc(Cl)ccc31)N(c1cc(Cl)ccc1C)C2=O` (stereo not drawn) [Example 150, 6-chloro-5′-(5-chloro-2-methylphenyl)-2′-(6-(difluoromethoxy)-4-methoxypyridin-3-yl)-3′-isopropyl-3′H-spiro[dihydroindole-3,4′-pyrrolo[3,4-d]imidazole]-2,6′(5′H)-dione], the “inhibitory effect on MDM2 compared with positive control compound HDM201” value is reported as “better”.
